From patent publication EP0434038A1, “Fused imidazole derivatives, their production and use” (Takeda Chemical Industries, Ltd., priority 1989, dated 1991)

How the values were obtained:
A-II-receptor = target: T1, A-II-receptor (Bos taurus, UniProt P25104); assay: displacement of 125I-angiotensin II from bovine adrenal cortex membranes; format: binding, membrane fraction; settings: for inhibition at 1 µM: read-out: Radioreceptor Assay (%) / 1X10⁻⁶M; for inhibition at 0.1 µM: read-out: Radioreceptor Assay (%) / 1X10⁻⁷M
T1 construct: An A-II-receptor was prepared from the membrane fraction of bovine adrenal cortex
T1 sequence (P25104 1-359): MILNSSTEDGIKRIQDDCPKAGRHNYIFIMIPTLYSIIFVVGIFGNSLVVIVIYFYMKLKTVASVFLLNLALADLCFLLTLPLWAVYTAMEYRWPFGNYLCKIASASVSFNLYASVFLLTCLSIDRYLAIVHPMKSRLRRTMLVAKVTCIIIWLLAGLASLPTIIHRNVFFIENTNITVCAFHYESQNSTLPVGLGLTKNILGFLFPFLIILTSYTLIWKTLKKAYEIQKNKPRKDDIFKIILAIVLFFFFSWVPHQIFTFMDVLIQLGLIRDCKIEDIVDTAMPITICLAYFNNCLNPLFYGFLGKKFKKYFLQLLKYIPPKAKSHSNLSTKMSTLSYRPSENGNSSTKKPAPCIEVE
Experimental: Inhibition of binding of angiotensin-II to angiotensin receptor
An experiment of inhibition on the binding of angiotensin-II (A-II) to A-II-receptor was conducted by modifying the method of Douglas et al. [Endocrinology, 102, 685-696 (1978)]. An A-II-receptor was prepared from the membrane fraction of bovine adrenal cortex.
The compound of the present invention (10⁻⁷M or 10⁻⁶M ) and ¹²⁵I-A-II (1.85 kBq/50 µl) were added to the receptor membrane fraction, and the mixture was incubated at room temperature for one hour. The receptor-bound and free ¹²⁵I-A-II were separated through a filter (Whatman GF/B filter), and the radioactivity of ¹²⁵I-A-II bound to the receptor was measured.

Jcl : SD rats = assay: inhibition of the pressor response to angiotensin II in rats, oral; format: in vivo; settings: Rattus norvegicus, p.o.
Source text: Inhibitory effect of the compound of the present invention on pressor action of A-II
Jcl : SD rats (9 week old, male) were used. On the day previous to the experiment, these animals were applied with cannulation into the femoral artery and vein under anesthesia with pentobarbital Na. The animals were fasted but allowed to access freely to drinking water until the experiment was started. Just on the day of conducting the experiment, the artery cannula was connected with a blood-pressure transducer, and the average blood pressure was recorded by means of polygraph. Before administration of the drug, the pressor action due to intravenous administration of A-II (100 ng/kg) as the control was measured. The drugs were orally administered, and then, at each point of the measurement, A-II was administered intravenously, and the pressor action was similarly measured. By comparing the pressor action before and after administration of the drug, the percent inhibition by the drug on A-II-induced pressor action was evaluated.

SMILES | inhibition at 1 µM (A-II-receptor) [%] | inhibition at 0.1 µM (A-II-receptor) [%] | inhibition at 30 mg/kg (Jcl : SD rats) [%] | inhibition at 10 mg/kg (Jcl : SD rats; 10 mg/kg) [%]
CCCCc1nc2cc(C)cnc2n1Cc1ccc(-c2ccccc2-c2nnn[nH]2)cc1 [compound 15, 2-Butyl-6-methyl-3-[[2'-(1H-tetrazol-5-yl)-biphenyl-4-yl]methyl]imidazo[5,4-b]pyridine, 0.3 H2O] | 75 | 32 | – | –
CCc1nc2cccnc2n1Cc1ccc(-c2ccccc2-c2nnn[nH]2)cc1 [compound 9, 2-Ethyl-3-[[2'-(1H-tetrazol-5-yl)biphenyl-4-yl]methyl]imidazo[4,5-b]pyridine, 1/2 EtOAc] | 84 | 50 | > 70 | –
CCCCc1nc2cnccc2n1Cc1ccc(-c2ccccc2-c2nnn[nH]2)cc1 [compound 13, 2-Butyl-1-[[2'-(1H-tetrazol-5-yl)biphenyl]-methyl]imidazo[4,5-c]pyridine, 0.2 H2O] | 44 | 1 | – | –
CCCCc1nc2ncccc2n1Cc1ccc(-c2ccccc2-c2nnn[nH]2)cc1 [compound 4, 0.4 H2O] | 48 | 5 | – | –
CCCCc1nc2ncc(C)cc2n1Cc1ccc(-c2ccccc2-c2nnn[nH]2)cc1 [compound 16, 2-Butyl-6-methyl-1-[[2'-(1H-tetrazol-5-yl)-biphenyl-4-yl]methyl]imidazo[5,4-b]pyridine, 0.4 H2O] | 32 | 0 | – | –
CCCCc1nc2nccnc2n1Cc1ccc(-c2ccccc2-c2nnn[nH]2)cc1 [compound 6, 2-Butyl-1-[[2'-(1H-tetrazol-5-yl)biphenyl-4-yl]methyl]imidazo[4,5-b]pyrazine, 0.4 H2O] | 81 | 43 | – | –
CCCc1nc2ccc(OC)nc2n1Cc1ccc(-c2ccccc2-c2nnn[nH]2)cc1 [compound 23, 5-Methoxy-2-propyl-3-[[2'-(1H-tetrazol-5-yl)-biphenyl-4-yl]methyl]imidazo[4,5-b]pyridine, 0.3 H2O] | 75 | 32 | – | –
CCCCc1nc2cccnc2n1Cc1ccc(-c2ccccc2-c2nnn[nH]2)cc1 [compound 3, 2-Butyl-3-[2'-[(1H-tetrazol-5-yl)biphenyl-4-yl]methyl]imidazo[4,5-b]pyridine] | 92 | 63 | > 70 | 50 to 70
CCCCc1nc2cc(Br)c(C)nc2n1Cc1ccc(-c2ccccc2-c2nnn[nH]2)cc1 [compound 24, 6-Bromo-2-butyl-5-methyl-3-[[2'-(1H-tetrazol-5-yl)biphenyl-4-yl]methyl]imidazo[5,4-b]pyridine] | 9 | 0 | – | –
CCCCc1nc2ccncc2n1Cc1ccc(-c2ccccc2-c2nnn[nH]2)cc1 [compound 14, 2-Butyl-3-[[2'-(1H-tetrazol-5-yl)biphenyl]-methyl]imidazo[4,5-c]pyridine, 0.2 H2O] | 56 | 9 | – | –
